Laboratory results: patent US20240352066A1, “ANTIMICROBIAL COMPOUNDS AND THE METHOD OF USE” (priority 2021, published 2024)
Values after ≈ are worked out from the molar mass of the structure shown. Where a SMILES comes first, the peptide text is derived from it. [ ]: non-standard residue; d: D form. N(tridecyl)Gly = CCCCCCCCCCCCCNCC(=O)O; Gly(N-2-aminoethyl) = NCCNCC(=O)O; Gly(N-cHex) = O=C(O)CNC1CCCCC1; Nleu = CC(C)CNCC(=O)O; Nlys = NCCCCNCC(=O)O

Key:
[1] = Percent acetonitrile at elution during RP-HPLC purification (hydrophobicity); type: physicochemical; conditions: percent acetonitrile at the time of elution from HPLC
Excerpt: All RMG8-8 derivatives were synthesized via the solid-phase submonomer synthesis method on polystyrene Rink Amide resin (Zuckermann et al. Journal of the American Chemical Society 114, 10646-10647 (1992)). The amines used during synthesis and the peptoid shorthand notations for each monomer are provided in Table 7 and Table 8, respectively. Compounds were purified to greater than 95% by RP-HPLC and compound identity was confirmed by ESI-TOF MS (Table 9). The calculated distribution coefficient at pH 7.4 (c Log D7.4) (via Chemaxon. MarvinSketch 19.17.0, 2019) and the percent acetonitrile at the time of elution during HPLC purification were recorded and serve as measures of hydrophobicity (Table 10). Higher values for c Log D7.4 and percent acetonitrile are indicators of increased compound hydrophobicity. With antimicrobial peptoids, hydrophobicity is directly related to both antimicrobial activity and cytotoxicity (Andreev et al. Biochimica et biophysica acta. Biomembranes 1860 6, 1414-1423 (2018); Bolt et al. Med chem comm 8, 886-896 (2017); Frederiksen et al. Molecules 24, (2019)). The ideal balance of these parameters generally must be determined experimentally. To measure antifungal activity, the minimum inhibitory concentration (MIC), defined as the concentration of compound required to inhibit 90% of fungal growth, was determined against C. neoformans using the broth microdilution method. Mammalian cytotoxicity was evaluated through a cell metabolic activity assay with HepG2 liver carcinoma cells, and select, potentially promising compounds were tested for unwanted hemolytic activity against human red blood cells.
Peptoids were purified via Reversed-Phase High-Performance Liquid Chromatography (RP-HPLC) using a Varian Prepstar SD-1. A gradient of 0-100% water to acetonitrile containing 0.05% TFA made up the mobile phase, and a Supelco Ascentis C18 column (5 μm; 25 cm×21.2 mm; Sigma-Aldrich 581347-U) was used as the stationary phase. Peaks in the chromatogram above 0.1 AU were collected and analyzed via mass spectrometry. The peak product with the desired peptoid was dried down in vacuo and lyophilized overnight. Peptoids were then reconstituted in sterile […] deionized water to create compound stocks of 20 mg/mL.

C. neoformans = type: cell-based, Cryptococcus neoformans; conditions: 72 h
[2] = system: HepG2 hepatocellular carcinoma cells; conditions: RMG8-8, previously published results (Green et al. 2021); cited from earlier work
C. albicans biofilm = type: cell-based, Candida albicans; conditions: 24 h
Procedure: Plates were incubated overnight at 37° C. Media was gently removed and gently washed three times with PBS. RPMI-MOPS (198 μL) were added to each well. 2-fold serial dilutions of 100× peptoid solutions were prepared in water and 2 μL of peptoid were added to each well in triplicate then incubated at 37° C. for 24 hours. PrestoBlue (20 μL) was added to each well and incubated at 37° C. for one hour before measuring fluorescence on a SpectraMax M5 plate reader (Ex. 555 nm; Em. 585 nm).

3T3 fibroblasts = assay: in vitro; type: cell-based, mouse
Procedure: (§1) Hepatocellular carcinoma (HepG2), mouse fibroblast (3T3), human lung (HPL1A), and human keratinocyte (HaCat) cells were cultured in Dulbecco modified eagle media (DMEM) containing 10% fetal bovine serum (FBS) and 1% penicillin, streptomycin, and glutamine (PSG) at 37° C. and 5% CO2. Cells were collected and adjusted to […] to 4×10^5 cells/mL in phenol-red free DMEM and plated (100 μL) 96 well plates. 2-fold serial dilutions of 10× peptoid (11.1 μL) were added to each well in triplicate. Water (vehicle) was used as a negative control. Plates were incubated at 37° C. in 5% CO2 for 72 hours. Thiazolyl blue tetrazolium bromide (MTT) was added to each well (5 mg/mL; 20 μL) and incubated for 3 hours. Media was removed, DMSO (100 μL) was added, and plates were incubated at 37° C. for 10 minutes. Plates were read on a SpectraMax M5 plate reader (Abs. 570 nm). The concentration of compound resulting in a 50% reduction in growth compared to control (toxicity dose 50%; TD50) was determined using GraFit. This procedure was repeated three times on separate days.

in vitro = type: cell-based, mouse; conditions: mouse, 3T3 fibroblasts
Procedure: as §1

% ACN [1]	C. neoformans MIC (C. neoformans)	SMILES	HepG2 TD50 [2]	MIC C. albicans biofilm (MBIC) (C. albicans biofilm)	proteolytic degradation / protein binding in human serum	MIC C. neoformans (C. neoformans)	TD50 3T3 (3T3 fibroblasts)	CC50 at 72 h (in vitro)
68.1%	3.13 µg/mL	CCCCCCCCCCCCCNCC(=O)N(CC(=O)N(CCCCN)CC(=O)N(CCN)CC(=O)N(CC(N)=O)CC(C)C)CC(C)C [Compound 9] (H-[N(tridecyl)Gly][Nleu][Nlys][Gly(N-2-aminoethyl)][Nleu]-NH2)	–	–	–	–	–	–
–	–	CCCCCCCCCCCCCNCC(=O)N(CC(=O)N(CCCCN)CC(=O)N(CCN)CC(=O)N(CC(N)=O)C1CCCCC1)C1CCCCC1 [RMG8-8, Ntri-Ncha-Nlys-Nae-Ncha] (H-[N(tridecyl)Gly][Gly(N-cHex)][Nlys][Gly(N-2-aminoethyl)][Gly(N-cHex)]-NH2)	189 ± 43 µg/mL	100 µg/mL (≈ 131 µM)	No proteolytic degradation or significant protein binding	1.6 µg/mL (≈ 2.1 µM)	59 µg/mL	59 ± 15 µg/mL (≈ 77.3 µM)
